Test results taken from paper PMC6220303 (EMBO Molecular Medicine, 2018).

Assays:
[1] = tested on: healthy participants ≥ 60 years; test: Adverse events after 3 months daily dosing (Appendix Table S8); assay type: in vivo, human
Protocol: For further details, see the Appendix Table S10 in Appendix and the accompanying clinical protocols synopsis (Appendix Table S11).
Randomized, double-blind, placebo-controlled, parallel-group study to assess the safety, Multiple-dose over 13-tolerability, pharmacokinetics ≥ 60 yrs 100 / 24 weeks (2, 10, 35 or 85 mg and pharmacodynamics of q.d. CNP520 vs. placebo) multiple oral doses of CNP520 in healthy elderly participants
Title A randomized, double-blind, placebo-controlled, parallel-group study to assess the safety, tolerability, pharmacokinetics and pharmacodynamics of multiple oral doses of CNP520 in healthy elderly subjects
Brief title Dose-ranging safety and tolerability study in subjects ≥60 years of age Sponsor and Clinical Novartis
Study type Interventional […]
rationale months to allow initiation future long-term efficacy trials in patients with Alzheimer’s disease (AD) or in subjects at risk of AD. In addition, data relevant for Pharmacokinetic/Pharmacodynamic modeling will be obtained in order to define the target dose in subsequent efficacy studies.
Primary Objective(s) To determine the safety and tolerability of multiple, once-daily oral doses of […]
Secondary • To assess the change from baseline of CSF Aβ concentrations (Aβ1-Objectives 38; Aβ1-40; Aβ1-42) in healthy elderly subjects over 13 weeks treatment with CNP520 as compared to placebo

Ghrelin receptor (GHS) = Ghrelin receptor (GHS) (Homo sapiens, UniProt Q92847); test: Receptor panel binding; conditions: read-out: Inhibition at 10 µM
Chain of Ghrelin receptor (GHS) (Q92847 whole entry): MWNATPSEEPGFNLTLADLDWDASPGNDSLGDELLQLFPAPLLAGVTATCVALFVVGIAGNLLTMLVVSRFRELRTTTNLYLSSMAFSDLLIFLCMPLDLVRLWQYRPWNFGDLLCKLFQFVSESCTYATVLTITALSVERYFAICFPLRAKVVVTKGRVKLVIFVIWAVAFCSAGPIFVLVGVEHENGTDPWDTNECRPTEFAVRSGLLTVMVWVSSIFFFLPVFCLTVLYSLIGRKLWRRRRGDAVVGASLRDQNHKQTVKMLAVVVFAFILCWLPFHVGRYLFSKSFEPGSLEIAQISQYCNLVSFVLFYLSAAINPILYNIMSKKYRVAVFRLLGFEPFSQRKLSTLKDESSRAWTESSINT
Protocol: (§1) Cellular Aβ release assays were done in CHO cells stably transfected with human wild‐type and human APP were done as described (Neumann et al, 2015). Determinations of logD, pKa, and binding to brain homogenates were done internally at Novartis, Basel. Plasma protein binding was determined by equilibrium dialysis using diluted plasma from the corresponding species. MDR‐1‐MDCK cells were obtained from Prof. A. Berns, Netherlands Cancer Institute, Amsterdam NL, and bi‐directional transport measurements were done as described (Rueeger et al, 2011). Receptor binding assays were done against an internal receptor panel and externally at Ricerca Biosciences, Peitou, Taiwan. In vitro binding and cellular patch clamp assays for hERG were done at Preclinical Safety, Novartis, Basel.

[2] = tested on: Calcium channel L-type, phenylalkylamine site; test: Receptor panel binding; parameters: species or system Rat
Protocol: as §1

[3] = tested on: Imidazoline I2 receptor central; test: Receptor panel binding; parameters: species or system Rat
Protocol: as §1

[4] = tested on: Sodium channel, binding site 2; test: Receptor panel binding; parameters: species or system Rat
Protocol: as §1

Compound: C[C@@]1(c2nc(NC(=O)c3ncc(C(F)(F)F)cc3Cl)ccc2F)CO[C@@](C)(C(F)(F)F)C(N)=N1 [CNP520]
- AE incidence: Neoplasms benign, malignant & unspecified (incl. cysts and polyps) ([1]; 35 mg daily, N = 26): 0 (0.0) n (%)
- AE incidence: Nervous system disorders ([1]; 35 mg daily, N = 26): 9 (34.6) n (%)
- AE incidence: Psychiatric disorders ([1]; 35 mg daily, N = 26): 1 (3.8) n (%)
- AE incidence: Renal and urinary disorders ([1]; 35 mg daily, N = 26): 2 (7.7) n (%)
- AE incidence: Reproductive system and breast disorders ([1]; 35 mg daily, N = 26): 0 (0.0) n (%)
- AE incidence: Respiratory, thoracic and mediastinal disorders ([1]; 35 mg daily, N = 26): 5 (19.2) n (%)
- AE incidence: Skin and subcutaneous tissue disorders ([1]; 35 mg daily, N = 26): 2 (7.7) n (%)
- AE incidence: Vascular disorders ([1]; 35 mg daily, N = 26): 0 (0.0) n (%)
- Participants with at least one AE ([1]; 35 mg daily, N = 26): 21 (80.8) n (%)
- AE incidence: Blood and lymphatic system disorders ([1]; 85 mg daily, N = 24): 0 (0.0) n (%)
- AE incidence: Ear and labyrinth disorders ([1]; 85 mg daily, N = 24): 1 (4.2) n (%)
- AE incidence: Eye disorders ([1]; 85 mg daily, N = 24): 4 (16.7) n (%)
- AE incidence: Gastrointestinal disorders ([1]; 85 mg daily, N = 24): 4 (16.7) n (%)
- AE incidence: General disorders and administration site conditions ([1]; 85 mg daily, N = 24): 5 (20.8) n (%)
- AE incidence: Immune system disorders ([1]; 85 mg daily, N = 24): 1 (4.2) n (%)
- AE incidence: Infections and infestations ([1]; 85 mg daily, N = 24): 4 (16.7) n (%)
- AE incidence: Injury, poisoning and procedural complications ([1]; 85 mg daily, N = 24): 8 (33.3) n (%)
- AE incidence: Investigations ([1]; 85 mg daily, N = 24): 1 (4.2) n (%)
- AE incidence: Metabolism and nutrition disorders ([1]; 85 mg daily, N = 24): 0 (0.0) n (%)
- AE incidence: Neoplasms benign, malignant & unspecified (incl. cysts and polyps) ([1]; 85 mg daily, N = 24): 0 (0.0) n (%)
- AE incidence: Nervous system disorders ([1]; 85 mg daily, N = 24): 8 (33.3) n (%)
- AE incidence: Psychiatric disorders ([1]; 85 mg daily, N = 24): 2 (8.3) n (%)
- AE incidence: Renal and urinary disorders ([1]; 85 mg daily, N = 24): 1 (4.2) n (%)
- AE incidence: Reproductive system and breast disorders ([1]; 85 mg daily, N = 24): 0 (0.0) n (%)
- AE incidence: Respiratory, thoracic and mediastinal disorders ([1]; 85 mg daily, N = 24): 5 (20.8) n (%)
- AE incidence: Skin and subcutaneous tissue disorders ([1]; 85 mg daily, N = 24): 6 (25.0) n (%)
- AE incidence: Vascular disorders ([1]; 85 mg daily, N = 24): 1 (4.2) n (%)
- Participants with at least one AE ([1]; 85 mg daily, N = 24): 18 (75.0) n (%)
- AE incidence: Blood and lymphatic system disorders ([1]; all doses, N = 100): 1 (1.0) n (%)
- AE incidence: Ear and labyrinth disorders ([1]; all doses, N = 100): 3 (3.0) n (%)
- AE incidence: Eye disorders ([1]; all doses, N = 100): 11 (11.0) n (%)
- AE incidence: Gastrointestinal disorders ([1]; all doses, N = 100): 29 (29.0) n (%)
- AE incidence: General disorders and administration site conditions ([1]; all doses, N = 100): 12 (12.0) n (%)
- AE incidence: Immune system disorders ([1]; all doses, N = 100): 1 (1.0) n (%)
- AE incidence: Infections and infestations ([1]; all doses, N = 100): 23 (23.0) n (%)
- AE incidence: Injury, poisoning and procedural complications ([1]; all doses, N = 100): 36 (36.0) n (%)
- AE incidence: Investigations ([1]; all doses, N = 100): 4 (4.0) n (%)
- AE incidence: Metabolism and nutrition disorders ([1]; all doses, N = 100): 2 (2.0) n (%)
- AE incidence: Neoplasms benign, malignant & unspecified (incl. cysts and polyps) ([1]; all doses, N = 100): 2 (2.0) n (%)
- AE incidence: Nervous system disorders ([1]; all doses, N = 100): 40 (40.0) n (%)
- AE incidence: Psychiatric disorders ([1]; all doses, N = 100): 6 (6.0) n (%)
- AE incidence: Renal and urinary disorders ([1]; all doses, N = 100): 5 (5.0) n (%)
- AE incidence: Reproductive system and breast disorders ([1]; all doses, N = 100): 2 (2.0) n (%)
- AE incidence: Respiratory, thoracic and mediastinal disorders ([1]; all doses, N = 100): 22 (22.0) n (%)
- AE incidence: Skin and subcutaneous tissue disorders ([1]; all doses, N = 100): 18 (18.0) n (%)
- AE incidence: Vascular disorders ([1]; all doses, N = 100): 3 (3.0) n (%)
- Participants with at least one AE ([1]; all doses, N = 100): 80 (80.0) n (%)
- AE incidence: Musculoskeletal and connective tissue disorders ([1]; human, in vivo): 27 (27.0) n (%)
- inhibition at 10 µM (Ghrelin receptor (GHS)): 79%
- inhibition at 10 µM [2]: 78%
- inhibition at 10 µM [3]: 61%
- inhibition at 10 µM [4]: 104%
